Data taken from patent US10745814B2, “Enzymatic nucleic acid synthesis” (President and Fellows of Harvard College, priority 2016, dated 2020).

Molecular target: TdT (Bos taurus, UniProt P06526)
Experiment: Screen of nucleotides and nucleotide analogues as substrates for TdT-based DNA synthesis
Format: biochemical
Conditions: for behavior with respect to TdT-based DNA synthesis (extension efficiency, rate, and extension length distribution): natural nucleotides compared with each other; for efficiency as substrates of TdT compared to natural counterparts: analogues more positively charged than natural counterparts
Excerpt: Nucleotide analogues may be used as substrates for enzymatic synthesis using TdT. In the general scheme of the presently disclosed methods, the distribution of extension length by TdT is important to ensure efficient and reliable encoding of information into DNA.
These analogues include, but are not limited to, 5-Aminoallyl-dUTP and 5-Propargylamino-dUTP.

Chain of TdT (P06526 whole entry): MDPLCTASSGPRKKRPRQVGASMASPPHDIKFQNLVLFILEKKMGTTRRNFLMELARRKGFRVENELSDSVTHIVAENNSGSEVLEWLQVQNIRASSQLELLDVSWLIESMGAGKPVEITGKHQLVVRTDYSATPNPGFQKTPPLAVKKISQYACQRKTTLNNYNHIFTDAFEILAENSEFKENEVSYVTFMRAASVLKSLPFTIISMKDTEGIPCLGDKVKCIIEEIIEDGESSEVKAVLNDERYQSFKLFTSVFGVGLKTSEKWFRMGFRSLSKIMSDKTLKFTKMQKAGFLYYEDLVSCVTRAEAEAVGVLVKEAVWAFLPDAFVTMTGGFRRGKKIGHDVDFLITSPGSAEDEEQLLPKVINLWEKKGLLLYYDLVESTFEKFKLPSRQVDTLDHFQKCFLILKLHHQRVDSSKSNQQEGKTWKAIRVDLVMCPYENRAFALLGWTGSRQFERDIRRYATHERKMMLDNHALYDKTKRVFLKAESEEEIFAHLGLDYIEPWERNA

Compound: Nc1nc2c(ncn2[C@H]2C[C@H](O)[C@@H](COP(=O)(O)OP(=O)(O)OP(=O)(O)O)O2)c(=O)[nH]1 [dGTP]
- behavior with respect to TdT-based DNA synthesis (extension efficiency, rate, and extension length distribution): poorest behavior

Compound: NC/C=C/c1cn(C2CC(O)C(COP(=O)(O)OP(=O)(O)OP(=O)(O)O)O2)c(=O)[nH]c1=O (centres unmarked) [5-Aminoallyl-dUTP]
- efficiency as substrates of TdT compared to natural counterparts: far more efficient substrates of TdT

Compound: Nc1ncnc2c1ncn2[C@H]1C[C@H](O)[C@@H](COP(=O)(O)OP(=O)(O)OP(=O)(O)O)O1 [dATP]
- behavior with respect to TdT-based DNA synthesis (extension efficiency, rate, and extension length distribution): poorest behavior

Compound: Nc1ccn([C@H]2C[C@H](O)[C@@H](COP(=O)(O)OP(=O)(O)OP(=O)(O)O)O2)c(=O)n1 [dCTP]
- behavior with respect to TdT-based DNA synthesis (extension efficiency, rate, and extension length distribution): most optimal behavior

Compound: NCC#Cc1cn(C2CC(O)C(COP(=O)(O)OP(=O)(O)OP(=O)(O)O)O2)c(=O)[nH]c1=O (centres unmarked) [5-Propargylamino-dUTP]
- efficiency as substrates of TdT compared to natural counterparts: far more efficient substrates of TdT
